Experimental data from US20230142606A1, “PESTICIDALLY ACTIVE FUSED BICYCLIC HETEROAROMATIC AMINO COMPOUNDS” (SYNGENTA CROP PROTECTION AG, priority 2020, published 2023).

How the values were obtained:
Format in all cases: in vivo
[1] = test system: Diabrotica Balteata (Corn Root Worm); assay: Example B1: Diabrotica balteata (corn root worm), maize sprouts sprayed, L2 larvae; conditions: 96 h, application rate of 200 ppm, 4 days after infestation, in comparison to untreated samples, read-out: effect in at least one of the two categories (mortality or growth inhibition)
Protocol: Example B1: Diabrotica Balteata (Corn Root Worm)
Maize sprouts placed onto an agar layer in 24-well microtiter plates were treated with aqueous test solutions prepared from 10′000 ppm DMSO stock solutions by spraying. After drying, the plates were infested with L2 larvae (6 to 10 per well). The samples were assessed for mortality and growth inhibition in comparison to untreated samples 4 days after infestation.
The following compounds gave an effect of at least 80% in at least one of the two categories (mortality or growth inhibition) at an application rate of 200 ppm: […]

[2] = test system: Chilo suppressalis (Striped Rice Stemborer); assay: Example B3: Chilo suppressalis (striped rice stemborer), artificial diet, L2 larvae; conditions: 144 h, application rate of 200 ppm, pipetting, 6 days after infestation, in comparison to untreated samples, read-out: control (at least one of mortality, anti-feedant effect, growth inhibition)
Protocol: Example B3: Chilo suppressalis (Striped Rice Stemborer)
24-well microtiter plates with artificial diet were treated with aqueous test solutions prepared from 10′000 ppm DMSO stock solutions by pipetting. After drying, the plates were infested with L2 larvae (6-8 per well). The samples were assessed for mortality, anti-feeding effect, and growth inhibition in comparison to untreated samples 6 days after infestation. Control of Chilo suppressalis by a test sample is given when at least one of the categories mortality, anti-feedant effect, and growth inhibition is higher than the untreated sample.

[3] = test system: Plutella xylostella (Diamond Back Moth); assay: Example B4: Plutella xylostella (diamond back moth), 24-well artificial diet, eggs; conditions: 192 h, application rate of 200 ppm, pipetting, 8 days after infestation, in comparison to untreated samples, read-out: effect in at least one of the two categories (mortality or growth inhibition)
Protocol: Example B4: Plutella xylostella (Diamond Back Moth)
24-well microtiter plates with artificial diet were treated with aqueous test solutions prepared from 10′000 ppm DMSO stock solutions by pipetting. After drying, Plutella eggs were pipetted through a plastic stencil onto a gel blotting paper and the plate was closed with it. The samples were assessed for mortality and growth inhibition in comparison to untreated samples 8 days after infestation. The following compounds gave an effect of at least 80% in at least one of the two categories (mortality or growth inhibition) at an application rate of 200 ppm: […]

[4] = test system: Spodoptera littoralis (Egyptian Cotton Leaf Worm); assay: Example B5: Spodoptera littoralis (Egyptian cotton leaf worm), cotton leaf discs sprayed, L1 larvae; conditions: foliar, 72 h, application rate of 200 ppm, 3 days after infestation, in comparison to untreated samples, read-out: control (at least one of mortality, anti-feedant effect, growth inhibition)
Protocol: Example B5: Spodoptera littoralis (Egyptian Cotton Leaf Worm)
Cotton leaf discs were placed onto agar in 24-well microtiter plates and sprayed with aqueous test solutions prepared from 10′000 ppm DMSO stock solutions. After drying the leaf discs were infested with five L1 larvae. The samples were assessed for mortality, anti-feeding effect, and growth inhibition in comparison to untreated samples 3 days after infestation. Control of Spodoptera littoralis by a test sample is given when at least one of the categories mortality, anti-feedant effect, and growth inhibition is higher than the untreated sample.

[5] = test system: Plutella xylostella (Diamondback Moth); assay: Example B7: Plutella xylostella (diamondback moth), 96-well artificial diet, eggs; conditions: 216 h, application rate of 500 ppm, eggs (~30 per well), 9 days after infestation, read-out: control (samples assessed for mortality)
Protocol: Example B7: Plutella xylostella (Diamondback Moth)
96-well microtiter plates containing artificial diet were treated with aqueous test solutions, prepared from 10′000 ppm DMSO stock solutions, by a liquid handling robot. After drying, eggs (˜30 per well) were infested onto a netted lid which was suspended above the diet. The eggs hatch and L1 larvae move down to the diet. The samples were assessed for mortality 9 days after infestation.

C[C@@H](c1ncnn1-c1ccc(C#N)cn1)N(C)c1nnc2c(C(F)(F)F)cc(C(F)(F)F)cn12 [Compound P1, 6-[5-[(lS)-1-[[6.8-bis(trifluoromethyl)-[1,2,4]triazolo[4,3-a]pyridin-3-yl]-methyl-amino]ethyl]-1,2,4-triazol-1-yl]pyridine-3-carbonitrile]
≥ 80%: percent effect (mortality or growth inhibition) at 200 ppm [1] | percent control (mortality, anti-feedant effect or growth inhibition) at 200 ppm [2] | percent effect (mortality or growth inhibition) at 200 ppm [3]

C[C@H](Nc1nnc2c(C(F)(F)F)cc(C(F)(F)F)cn12)c1ncnn1-c1ccc(C#N)cn1 [Compound P2, 6-[5-[(1S)-1-[[6,8-bis(trifluoromethyl)-[1,2,4]triazolo[4,3-a]pyridin-3-yl]amino]ethyl]-1,2,4-triazol-1-yl]pyridine-3-carbonitrile]
≥ 80%: percent effect (mortality or growth inhibition) at 200 ppm [1] | percent control (mortality, anti-feedant effect or growth inhibition) at 200 ppm [4] | percent control (mortality, anti-feedant effect or growth inhibition) at 200 ppm [2] | percent effect (mortality or growth inhibition) at 200 ppm [3]

CC(Nc1nnc2c(C(F)(F)F)cc(C(F)(F)F)cn12)c1ncnn1-c1ccc(C#N)cn1 (stereo not shown) [Compound P3, 6-[5-[1-[[6,8-bis(trifluoromethyl)-[1,2,4]triazolo[4,3-a]pyridin-3-yl]amino]ethyl]-1,2,4-triazol-1-yl]pyridine-3-carbonitrile]
≥ 80%: percent effect (mortality or growth inhibition) at 200 ppm [1] | percent control (mortality, anti-feedant effect or growth inhibition) at 200 ppm [4] | percent control (mortality, anti-feedant effect or growth inhibition) at 200 ppm [2] | percent effect (mortality or growth inhibition) at 200 ppm [3]

CC(Nc1nnc2c(C(F)(F)F)cc(C(F)(F)F)cn12)c1ncnn1-c1ccc(Br)cn1 (stereo not shown) [Compound P4, N-[1-[2-(5-bromo-2-pyridyl)-1,2,4-triazol-3-yl]ethyl]-6,8-bis(trifluoromethyl)-[1,2,4]triazolo[4,3-a]pyridin-3-amine]
≥ 80%: percent effect (mortality or growth inhibition) at 200 ppm [1] | percent control (mortality, anti-feedant effect or growth inhibition) at 200 ppm [4] | percent control (mortality, anti-feedant effect or growth inhibition) at 200 ppm [2] | percent effect (mortality or growth inhibition) at 200 ppm [3]

CC(Nc1nnc2c(C(F)(F)F)cc(Br)cn12)c1ncnn1-c1ccc(Br)cn1 (stereo not shown) [Compound P5, 6-bromo-N-[1-[2-(5-bromo-2-pyridyl)-1,2,4-triazol-3-yl]ethyl]-8-(trifluoromethyl)-[1,2,4]triazolo[4,3-a]pyridin-3-amine]
≥ 80%: percent effect (mortality or growth inhibition) at 200 ppm [1] | percent control (mortality, anti-feedant effect or growth inhibition) at 200 ppm [2] | percent effect (mortality or growth inhibition) at 200 ppm [3]

CC(Nc1nnc2c(C(F)(F)F)cc(Br)cn12)c1ncnn1-c1ccc(C#N)cn1 (stereo not shown) [Compound P6, 6-[5-[1-[[6-bromo-8-(trifluoromethyl)-[1,2,4]triazolo[4,3-a]pyridin-3-yl]amino]ethyl]-1,2,4-triazol-1-yl]pyridine-3-carbonitrile]
≥ 80%: percent control (mortality, anti-feedant effect or growth inhibition) at 200 ppm [4] | percent control (mortality, anti-feedant effect or growth inhibition) at 200 ppm [2] | percent effect (mortality or growth inhibition) at 200 ppm [3]

CC(Nc1nnc2c(C(F)(F)F)cc(Br)cn12)c1ncnn1-c1ncccn1 (stereo not shown) [Compound P7, 6-bromo-N-[1-(2-pyrimidin-2-yl-1,2,4-triazol-3-yl)ethyl]-8-(trifluoromethyl)-[1,2,4]triazolo[4,3-a]pyndin-3-amine]
≥ 80%: percent control (mortality, anti-feedant effect or growth inhibition) at 200 ppm [2]

CC(Nc1nnc2c(Cl)cc(C(F)(F)F)cn12)c1ncnn1-c1ccc(C#N)cn1 (stereo not shown) [Compound P8, 6-[5-[1-[[8-chloro-6-(trifluoromethyl)-[1,2,4]triazolo[4,3-a]pyridin-3-yl]amino]ethyl]-1,2,4-triazol-1-yl]pyridine-3-carbonitrile]
≥ 80%: percent effect (mortality or growth inhibition) at 200 ppm [1] | percent control (mortality, anti-feedant effect or growth inhibition) at 200 ppm [4] | percent control (mortality, anti-feedant effect or growth inhibition) at 200 ppm [2] | percent effect (mortality or growth inhibition) at 200 ppm [3]

CC(Nc1nnc2c(Cl)cc(C(F)(F)F)cn12)c1ncnn1-c1ncccn1 (stereo not shown) [Compound P9, 8-chloro-N-[1-(2-pyrimidin-2-yl-1,2,4-triazol-3-yl)ethyl]-6-(trifluoromethyl)-[1,2,4]triazolo[4,3-a]pyridin-3-amine]
≥ 80%: percent control (mortality, anti-feedant effect or growth inhibition) at 200 ppm [2] | mortality at 500 ppm [5]
